# In patent US20260014278A1, “HYBRID PEPTIDE DENDRIMER SYSTEMS AND EXTRAHEPATIC DELIVERY” (NUNTIUS THERAPEUTICS LIMITED, priority 2022, published 2026):
# System: lung and spleen
# Assay: Luciferase mRNA expression in mouse tissues after intravenous administration (bioluminescence)
# Format: in vivo, Balb/c mice
# Details: 6 hours, DOTMA/DOPE w/w=23:1 to mRNA, dendrimers NP=0.6:1, FIG. 11
# Procedure: All animal procedures were conducted following the Animal Research Reporting of In Vivo Experiments and approved by the UK Home Office for the conduct of regulated procedures under license. For the data underlying FIG. 11, Balb/c mice aged 4 weeks were purchased from Jackon's Laboratory and left to acclimate in the new housing environment for 1-week upon their arrival. All mice were weighed and warmed for 15 min at 37 C in a heating chamber. The formulations were delivered intravenously (5 mL/kg) via the tail vein using 30 G insulin syringes (BD biosciences).
# All mice were imaged 6 hours post injection. BLI was performed using an IVIS Lumina II (Perkin Elmer) imaging system. Mice were administered D-luciferin (GoldBio) at a dose of 10 uL/g. Mice were anaesthetised in a chamber with 2.5% isoflurane and then placed on a heated imaging platform while being maintained on 2.5% isoflurane. For the data underlying FIG. 11, mice were imaged 10 min post administration of D-luciferin with an exposure time set at 45 sec to ensure the signal acquired was within an effective detection range (binning medium). Bioluminescence signal was quantified by measuring photon flux (photons/s) using the Living Image software (Perkin Elmer). […] The organs were placed in the centre of imaging platform (Lumina II system) and signal was measured using the acquisition settings detailed above. […]
substance,measurement,value
"(RHL)4(KRHL)2KGSC-NH2 [GSCG1,2-RHL]",delivery of luciferase mRNA cargo to lung and spleen (bioluminescence),further improved
